Results: article PMC11696576, “Next generation thiazolyl ketone inhibitors of cytosolic phospholipase A2 α for targeted cancer therapy” (Nature Communications, 2025)
Values joined by “and” are separate entries in the source; they are usually repeats but may differ in a detail not shown here. Equal entries are not always repeated. Where two headings read alike, the source gives them in different places.

Tests used:
[1] = system: CD3+ T-cells; test: viability of healthy T-cells, propidium iodide exclusion; type: cell-based
Method: Data are the mean ± stdev of 3 biological replicates. […] Data are the mean ± stdev of 3 biological replicates.
Propidium iodide exclusion was used to assess cell death by flow cytometry. After treatment, the cells were washed once with PBS and stained with 1.4 μg/mL propidium iodide (PI) for 5 min before quantification of PI negative and positive cells using a CytoFLEX flow cytometer (California, United States). An example of the gating strategy to assess PI staining can be found in Fig. S8c. […]
The propidium iodide exclusion assay was used to assess vi-ability of ungated PBMCs treated with AVX420 at the indicated doses for 24 hours .
Data are the mean ±stdev from 8 biological replicates (1-16 µM) and 5 biological rep- […]
iodide exclusion in CD3+ lymphocytes (T-cells). Cells appearing in the bottom right quadrant are PI-negative (live) T-cells while cells in the top right quadrant are PI-posi- […]
(1 picture or pasted object on this page, not shown here)

[2] = system: CCRF-CEM cells; test: cell viability, CTG assay, CCRF-CEM; conditions: for cell viability (0 µM = 100): listed as AVX420; for cell viability (Control = 100): VEH; for viability at 0.007 µM / viability at 0.015 µM / viability at 0.031 µM / viability at 0.062 µM / viability at 0.25 µM / viability at 0.5 µM / viability at 1 µM / viability at 2 µM / viability at 0.125 µM: Homo sapiens
Method: Data are the mean ± stdev of 3 biological replicates. c Viability of healthy T-cells measured by propidium iodide (PI) exclusion. Data are the mean ± stdev of 8 biological replicates for 1–16 µM AVX420, 5 for 32 µM AVX420 and 2 for 0.5 µM Staurosporine (Stau). d Cell viability measured by CTG assay in cells preincubated with 2.5 mM glutathione (GSH) or 2.5 mM N-acetyl cysteine (NAC) for 30 min before addition of 0.5 or 1 µM AVX420, 0.06 µM RSL-3, or 0.06 µM ML-210 for 24 h. Data are the mean ± stdev of 3 biological replicates. P-values were determined by one-way ANOVA with Dunnett’s correction for multiple testing and **** indicates P < 0.0001. e Cell viability measured by CTG assay. CCRF-CEM or Jurkat cells were co-treated with 0.5 µM AVX420 and either arachidonic acid (AA) at concentrations ranging from 1 to 100 µM or a mixture of 9 eicosanoids: 6-keto prostaglandin F1α, Thromboxane B2, prostaglandin F2α, prostaglandin E2, prostaglandin D2, 12(S)-HHTrE, 15(S)-HETE,12(S)-HETE, 5(S)-HETE at a final concentration of 2 ng/mL each (EIC-mix) for 24 h. Data are the mean ± stdev of 3 biological replicates. P-values were determined by two-way ANOVA with Sidak’s correction for multiple comparisons. f Proportion of intracellular ROS-positive cells measured by ROS-red staining and flow cytometry. Cells were treated with indicated concentrations of AVX420 (µM), 1 mM H2O2, 1 µM RSL-3, or 1 µM doxorubicin (dox) for 4 h. Data are the mean ± stdev of 3 biological replicates. g Intracellular ROS measurements in CCRF-CEM cells treated with AVX420 (0.5 µM), AVX002 (8 µM), or AACOCF3 (8 µM) for 4 h.
All cell lines were confirmed to be free of mycoplasma contamination. The cell lines were not authenticated. MV-4-11 were cultured in Iscove’s Modified Dulbecco’s Medium (Sigma, I3390). CCRF-CEM, Jurkat E6.1, and HL-60 cells were cultured in RPMI 1640 Medium RPMI-1640 medium (Sigma, R5886).

[3] = Figure 6c, 32 µM, listed as AVX420

## CCCCCCCOc1ccc(OCC(=O)c2nc(C(=O)OC)cs2)cc1 [GK420]
[1]; Figure 6c, 2 µM, listed as AVX420
  PI Negative: 96 and 98 and 95 and 91 and 89 and 97
[1]; Figure 6c, 8 µM, listed as AVX420
  PI Negative: 96 and 98 and 94 and 90 and 87 and 95 and 93
[1]; Figure 6c, 16 µM, listed as AVX420
  PI Negative: 96 and 98 and 94 and 90 and 84 and 91
[1]; [3]
  PI Negative: 92 and 94 and 89 and 91 and 90
  PI Positive: 6 and 11 and 9 and 10 and 8
[1]; up to a maximum dose tested of 32 µM
  effect on healthy CD3+ T-cells: no effect
[2]; 0.007 µM, 24H
  cell viability (0 µM = 100): 100
[2]; 0.015 µM, 24H
  cell viability (0 µM = 100): 90
[2]; 0.015 µM, 72H
  cell viability (0 µM = 100): 81
[2]; 0.031 µM, 24H
  cell viability (0 µM = 100): 99
[2]; 0.062 µM, 24H
  cell viability (0 µM = 100): 103
[2]; 0.062 µM, 48H
  cell viability (0 µM = 100): 84
[2]; 0.062 µM, 72H
  cell viability (0 µM = 100): 70
[2]; 0.125 µM, 72H
  cell viability (0 µM = 100): 45 and 46
[2]; 0.25 µM, 24H
  cell viability (0 µM = 100): 69 and 65
[2]; 0.25 µM, 48H
  cell viability (0 µM = 100): 43
[2]; 0.25 µM, 72H
  cell viability (0 µM = 100): 16 and 24
[2]; 0.5 µM, 24H
  cell viability (0 µM = 100): 42 and 39
[2]; 0.5 µM, 48H
  cell viability (0 µM = 100): 19
[2]; 0.5 µM, 72H
  cell viability (0 µM = 100): 5.44 and 10
[2]; 0.5 µM, listed as AVX420, 0.5 µM
  cell viability (Control = 100): 56 and 50
[2]; 1 µM, 24H
  cell viability (0 µM = 100): 23
[2]; 1 µM, 48H
  cell viability (0 µM = 100): 10
[2]; 1 µM, 72H
  cell viability (0 µM = 100): 3 and 4.53
[2]; 1 µM, listed as AVX420, 1 µM
  cell viability (Control = 100): 38
[2]; 2 µM, 24H
  cell viability (0 µM = 100): 11
[2]; 2 µM, 48H
  cell viability (0 µM = 100): 3 and 2
[2]; 2 µM, 72H
  cell viability (0 µM = 100): 1.13
[2]; 4 µM, 72H
  cell viability (0 µM = 100): 0.147
[2]; CTG
  effect on viability: strong dose-dependent effect
[2]; 24 h, read-out: cell viability (0 µM = 100), CCRF-CEM, 0.007 µM, 24H
  viability at 0.007 µM: 98%
[2]; 24 h, read-out: cell viability (0 µM = 100), CCRF-CEM, 0.015 µM, 24H
  viability at 0.015 µM: 98%
[2]; 24 h, read-out: cell viability (0 µM = 100), CCRF-CEM, 0.031 µM, 24H
  viability at 0.031 µM: 98%
[2]; 24 h, read-out: cell viability (0 µM = 100), CCRF-CEM, 0.062 µM, 24H
  viability at 0.062 µM: 98%
[2]; 24 h, read-out: cell viability (0 µM = 100), CCRF-CEM, 0.25 µM, 24H
  viability at 0.25 µM: 68%
[2]; 24 h, read-out: cell viability (0 µM = 100), CCRF-CEM, 0.5 µM, 24H
  viability at 0.5 µM: 49%
[2]; 24 h, read-out: cell viability (0 µM = 100), CCRF-CEM, 1 µM, 24H
  viability at 1 µM: 27%
[2]; 24 h, read-out: cell viability (0 µM = 100), CCRF-CEM, 2 µM, 24H
  viability at 2 µM: 14%
[2]; 48 h, read-out: cell viability (0 µM = 100), CCRF-CEM, 0.007 µM, 48H
  viability at 0.007 µM: 94%
[2]; 48 h, read-out: cell viability (0 µM = 100), CCRF-CEM, 0.015 µM, 48H
  viability at 0.015 µM: 95%
[2]; 48 h, read-out: cell viability (0 µM = 100), CCRF-CEM, 0.031 µM, 48H
  viability at 0.031 µM: 87%
[2]; 48 h, read-out: cell viability (0 µM = 100), CCRF-CEM, 0.062 µM, 48H
  viability at 0.062 µM: 85%
[2]; 48 h, read-out: cell viability (0 µM = 100), CCRF-CEM, 0.125 µM, 48H
  viability at 0.125 µM: 67%
[2]; 48 h, read-out: cell viability (0 µM = 100), CCRF-CEM, 0.25 µM, 48H
  viability at 0.25 µM: 41%
[2]; 48 h, read-out: cell viability (0 µM = 100), CCRF-CEM, 0.5 µM, 48H
  viability at 0.5 µM: 17%
[2]; 48 h, read-out: cell viability (0 µM = 100), CCRF-CEM, 1 µM, 48H
  viability at 1 µM: 9%
[2]; 48 h, read-out: cell viability (0 µM = 100), CCRF-CEM, 2 µM, 48H
  viability at 2 µM: 4%
[2]; 72 h, read-out: cell viability (0 µM = 100), CCRF-CEM, 0.007 µM, 72H
  viability at 0.007 µM: 82%
[2]; 72 h, read-out: cell viability (0 µM = 100), CCRF-CEM, 0.015 µM, 72H
  viability at 0.015 µM: 78%
[2]; 72 h, read-out: cell viability (0 µM = 100), CCRF-CEM, 0.031 µM, 72H
  viability at 0.031 µM: 76%
[2]; 72 h, read-out: cell viability (0 µM = 100), CCRF-CEM, 0.062 µM, 72H
  viability at 0.062 µM: 67%
[2]; 72 h, read-out: cell viability (0 µM = 100), CCRF-CEM, 0.125 µM, 72H
  viability at 0.125 µM: 40%
[2]; 72 h, read-out: cell viability (0 µM = 100), CCRF-CEM, 0.25 µM, 72H
  viability at 0.25 µM: 21%
[2]; 72 h, read-out: cell viability (0 µM = 100), CCRF-CEM, 0.5 µM, 72H
  viability at 0.5 µM: 7%
